Results reported in PMC12046717 (Acta Neuropathologica Communications, 2025).

Legend:
human CYP3A4 = conditions: cited from earlier work
[1] = Pharmacokinetic study, plasma and brain concentration by LC-MS/MS; conditions: H2122-FmC and SW1573-FmC tumor-bearing mice, oral adagrasib 75 mg/kg BID or abemaciclib 50 mg/kg QD for three days, 1 h after last dose
[2] = tested on: SW1573-FmC intracranial tumors; experiment: Intracranial xenograft efficacy study (BLI, survival, body weight); format: in vivo, female nude (athymic) mice; conditions: SW1573-FmC model
Procedure: (§1) All the animal studies were conducted in compliance with all applicable regulations and guidelines of the Institutional Animal Care and Use Committee. Six-to-eight-week-old female nude (athymic) mice were obtained from Charles River Laboratory and maintained under pathogen-free conditions, with food and water provided ad libitum. Mice were implanted intracranially with SW1573-FmC (2 × 10^5 in 2 μL serum-free media) or H2122-FmC cells (1.5 × 10^5 in 2 μL serum-free media) in the right striatum region under general anesthesia using stereotactic procedures as previously described. Animal health was monitored daily.
(§2) Animals were humanely euthanized when > 20% body weight loss or > 15% body weight loss plus neurological signs was noted. Survival data were collected for each group and analyzed using the Kaplan–Meier method. Survival duration by group was tested for statistical significance using the Gehan-Breslow-Wilcoxon test with False Discovery Rate correction. Statistical comparisons were considered significant when the adjusted P value was below 0.05 (P < 0.05).
(§3) Animals were injected intraperitoneally with luciferin (150 mg/kg, 0.01 mL/g) based on body weight and anesthetized using 1–2% isoflurane in oxygen at 1–2 L/minute. Images were acquired beginning at 7 min after luciferin injection for three time points (7, 15, and 30 min). Region of interest (ROI) analysis was completed on BLI images using AURA software (Spectral Instrument Imaging). BLI images were generated by overlaying BLI signals for each animal onto their respective white-light images for anatomic reference. Brain ROIs were generated using a fixed area circle and were placed based on the BLI signal in the relevant area, using the photographic anatomical reference images. BLI signals in images were scaled in units of radiance (photons per second per […] per steradian). Prism 9 software (Graph Pad) was used to generate relevant plots based on the in vivo quantification.
(§4) For the caspase 3/7 assay, differences in luminescence signals (from control) were determined using One-Way ANOVA. Differences in BLI radiance were tested for statistical significance using the One-Way ANOVA comparison. Statistical comparisons between two groups were considered significant when the adjusted P value was below 0.05 (P < 0.05). Kaplan–Meier analysis and log-rank test were used for the analysis of animal overall survival, comparing the groups.

[3] = tested on: H2122-FmC intracranial tumors; experiment: as above; format: in vivo, female nude (athymic) mice; conditions: H2122-FmC model
Procedure: as §1, §2, §3, §4

[4] = tested on: phospho-ERK (p-ERK) in SW1573 cells; experiment: Western blot of phospho-ERK; format: cell-based, human; conditions: 48 h, 1,000 nM adagrasib and/or 1,000 nM abemaciclib
H2122-FmC cells = experiment: CyQUANT cell proliferation assay, FmC-transduced cells; format: cell-based; conditions: Homo sapiens, 120h drug exposure
Procedure: (§5) Human NSCLC cell lines, SW1573 and H2122 cells, were obtained from the American Type Culture Collection. Both cell lines carry a KRAS G12C mutation and CDKN2A homozygous deletion. The cell lines were authenticated by short tandem fingerprinting in 2022 and periodically tested to be Mycoplasma-free. H2122 cells were cultured in RPMI-1640 supplemented with 10% fetal bovine serum. SW1573 cells were maintained in DMEM supplemented with 5% FBS. Both cell lines were cultured at 37 °C in a 5% CO2-humidified atmosphere and passaged when they reached 80–90% confluence. Cells were transduced with a lentivirus vector carrying cDNA coding for firefly luciferase and mCherry to generate SW1573-FmC and H2122-FmC for in vivo studies. […]
(§6) cell viability of firefly-luciferase and mCherry (FmC)-transduced NSCLC cells.
(§7) A, Image representing cell line transduction procedures, involving overnight exposure with a lentivirus vector expressing Firefly luciferase and mCherry. B, C, CellTiter-Glo and CyQUANT […]
(§8) Highest Single Agent model analysis in SW1573-FmC (D) and H2122-FmC (E) cell lines (96h […]
(§9) HSA synergy and antagonism

SW1573-FmC cells = experiment: as above; format: cell-based; conditions: Homo sapiens, 120h drug exposure
Procedure: as §5, §6, §7, §8, §9

[5] = tested on: SW1573-FmC intracranial tumors; experiment: Pharmacodynamic immunohistochemistry of brain tumors; format: in vivo, mice; conditions: SW1573-FmC xenograft, 3 days treatment
Source text: Formalin-fixed paraffin-embedded Sects. (7-μm thickness) were subjected to immunohistochemistry according to the methods described previously. Primary antibodies used included those directed at: p-ERK (CST), p-Rb (CST), Ki67 (Dako, MIB1) and Cleaved caspase 3 (CST, 9661). Immuno-positive cells and negative cells within tumor tissues were counted and the fraction of positive cells determined.

H2122 cells [6] = experiment: CyQUANT cell proliferation assay; format: cell-based, human; conditions: 120 h drug exposure
Procedure: (§10) Human NSCLC cell lines, SW1573 and H2122 cells, were obtained from the American Type Culture Collection. Both cell lines carry a KRAS G12C mutation and CDKN2A homozygous deletion. The cell lines were authenticated by short tandem fingerprinting in 2022 and periodically tested to be Mycoplasma-free. H2122 cells were cultured in RPMI-1640 supplemented with 10% fetal bovine serum. SW1573 cells were maintained in DMEM supplemented with 5% FBS. Both cell lines were cultured at 37 °C in a 5% CO2-humidified atmosphere and passaged when they reached 80–90% confluence. Cells were transduced with a lentivirus vector carrying cDNA coding for firefly luciferase and mCherry to generate SW1573-FmC and H2122-FmC for in vivo studies.

[7] = clinically ref 23; cited from earlier work
[8] = tested on: caspase 3/7 in SW1573 cells; experiment: Caspase 3/7-Glo cell death assay; format: cell-based, human; conditions: 48 h, 1,000 nM adagrasib, 1,000 nM abemaciclib, alone or combined
Procedure: as §4

human p-gp = human p-gp ref 6, 34; cited from earlier work
H2122 cells [9] = experiment: Flow cytometry cell cycle analysis; format: cell-based, human; conditions: 24 h drug exposure
Procedure: (§11) Cells were harvested, washed with PBS, and fixed in 2% paraformaldehyde. After the samples were prepared for analysis, fixed cells were resuspended in media and incubated with Vybrant DyeCycle Violet stain (ThermoFisher) for 30 min at 37 °C while protected from light. Flow cytometry was conducted using LSR II Cytometer (BD Biosciences) and analysis was done with FlowJo software and the Dean Jett-Fox algorithm.

SW1573 cells [10] = experiment: Flow cytometry cell cycle analysis; format: cell-based, human; conditions: 24 h drug exposure
Procedure: as §11

[11] = tested on: p-Rb (Ser807/811) in SW1573 cells; experiment: Western blot of phospho-Rb; format: cell-based, human; conditions: 24 h exposure
Procedure: (§12) Cells and tissues were lysed in RIPA lysis buffer (Pierce). The protein concentration was measured using Bradford assay (BioRad). Protein lysates were separated by Mini-PROTEAN TGX gel electrophoresis (BioRad) and subsequently transferred to PVDF membranes (BioRad) for immunoblotting analysis. The membrane was blocked with 5% non-fat skim milk in Tris-buffered saline with tween. Incubation in diluted primary antibodies was conducted overnight and diluted horseradish peroxidase-conjugated secondary antibodies were subsequently applied. Immunoreactive bands were detected using ECL substrate reagent (BioRad), and the membrane was developed using a ChemiDoc XRS + system (BioRad). Primary antibodies used were against: phospho-ERK (Cell Signaling Technology (CST), 4370), ERK (CST, 9102), phospho-Rb (Ser807/811, CST, 8516), β-actin (CST, 3700), and vinculin (Millipore Sigma, 05–386).

[12] = tested on: p-Rb (Ser807/811) in H2122 cells; experiment: Western blot of phospho-Rb; format: cell-based, human; conditions: 24 h exposure
Procedure: as §12

SW1573 cells [13] = experiment: CyQUANT cell proliferation assay; format: cell-based; conditions: Homo sapiens, SW1573, 120 h
Procedure: as §10

[14] = parameters: method as in PMID 31658955; conditions: cited from earlier work
[15] = tested on: progressive BM with CDK pathway alterations; conditions: patients with progressive BM with CDK pathway alterations ref 21; cited from earlier work

## CCN1CCN(Cc2ccc(Nc3ncc(F)c(-c4cc(F)c5nc(C)n(C(C)C)c5c4)n3)nc2)CC1 [abemaciclib]
Human CYP3A4
  CYP3A4 interaction: substrate of CYP3A4
[1]
  Concentration in brain: 200 to 300 ng/mL
  Concentration in plasma: 290 to 400 ng/mL
[2]; 5-week treatment, animals with pre-treatment spinal disease excluded
  Overall survival (Kaplan–Meier): did not show survival benefit
[2]; comparison of the groups, including animals with spinal disease
  Overall survival (Kaplan–Meier), all animals included: No statistical significance
[2]; day 40, adagrasib 75 mg/kg BID, abemaciclib 50 mg/kg QD, animals with pre-treatment spinal disease excluded
  BLI signal intensity (radiance) vs vehicle: lower average BLI compared to the vehicle, without statistical significance
[3]; 5-week treatment, adagrasib 75 mg/kg BID, abemaciclib 50 mg/kg QD
  Animal survival (Kaplan–Meier) vs control: no survival efficacy
[3]; day 40, no statistical significance
  BLI post-treatment signals vs control: signals comparable to the control
[4]
  Effect on p-ERK (immunoblot, co-treatment experiment): modestly suppressed p-ERK
H2122-FmC cells
  IC50: 518 nM
SW1573-FmC cells
  IC50: 1000 nM
[5]
  Cleaved caspase 3 (C-Cas3) positivity in tumor (IHC): very few C-Cas3 positive cells
  p-ERK-positive cells in tumor (IHC): decreased p-ERK-positive cells
  p-Rb-positive cells in tumor (IHC): modestly decreased P-Rb immunopositivity
H2122 cells [6]
  IC50: 626 nM
H2122 cells [6]; Homo sapiens, NCI-H2122, 120 h
  IC50: 600 nM
[7]
  CSF versus plasma concentrations: comparable concentrations in the CSF and plasma
[8]
  Caspase 3/7 activity: did not significantly provoke activation of caspase 3/7
Human p-gp
  P-gp-mediated efflux interaction: substrates and inhibitors of human p-gp-mediated efflux
H2122 cells [9]
  Effect on cell cycle phase fractions: significantly increased the fraction of G1 phase and decreased the fractions of S and G2 phases
SW1573 cells [10]
  Effect on cell cycle phase fractions: significantly increased the fraction of G1 phase and decreased the fractions of S and G2 phases
[11]
  Effect on p-Rb (Ser807 and Ser811, immunoblot): dose-dependent inhibition of p-Rb
[12]
  Effect on p-Rb (Ser807 and Ser811, immunoblot): dose-dependent inhibition of p-Rb
SW1573 cells [13]; 120-h drug exposure
  IC50: 1000 nM
SW1573 cells [13]; 120 h drug exposure
  IC50: 833 nM

## C=C(F)C(=O)N1CCN(c2nc(OC[C@@H]3CCCN3C)nc3c2CCN(c2cccc4cccc(Cl)c24)C3)C[C@@H]1CC#N [adagrasib]
Human CYP3A4
  CYP3A4 interaction: time-dependent inhibition of human CYP3A4
[5]
  Cleaved caspase 3 (C-Cas3) positivity in tumor (IHC): trend of increased positivity
  p-ERK-positive cells in tumor (IHC): decrease of p-ERK-positive cells
  p-Rb-positive cells in tumor (IHC): decreased p-Rb-positive cells
[14]
  Half-life: 24 h
Human p-gp
  P-gp-mediated efflux interaction: substrates and inhibitors of human p-gp-mediated efflux

## CC(=O)c1c(C)c2cnc(Nc3ccc(N4CCNCC4)cn3)nc2n(C2CCCC2)c1=O [palbociclib]
[15]
  Intracranial activity in patients: demonstrated intracranial activity
